From publication PMC7555839 (Frontiers in Microbiology, 2020)
Like-named read-outs stand apart in the source and are kept apart here.

Assays:
[1] = system: Salmonella typhimurium TA1537; experiment: Ames test; settings: for Mutagenicity ratio (MR): TA1537, 4 μg/well
[2] = system: S. aureus ATCC BAA-1556; experiment: Broth microdilution (MIC/MBC); assay type: cell-based; settings: Staphylococcus aureus, ATCCBAA1556; ATCC BAA-1556, human clinical isolate
[3] = system: Staphylococcus aureus USA300 JE2; experiment: Broth microdilution (MIC/MBC); assay type: cell-based; settings: USA300 JE2, human clinical isolate
[4] = system: Escherichia coli mutant [wp2 (pKM101)]
[5] = system: S. aureus USA300; experiment: Induced tolerance assay (23 days); settings: for MIC: Staphylococcus aureus
[6] = system: S. aureus USA300 JE2; experiment: Agar dilution MIC; assay type: cell-based; settings: Staphylococcus aureus, MHA plates
Experimental: (§1) Initially, MHA plates with JBC 1847 concentrations ranging from 0.5 to 8 mg/L were made and bacterial inoculum was prepared as previously described, was added to each plate. […] The MIC values for the two S. aureus strains were both determined to 4 mg/L and therefore, TSA plates with a JBC 1847 concentration of 2 mg/L were prepared to ensure the strains were able to grow. One dish of each type of antibiotic was added to a single TSA plate with JBC 1847 and a control plate containing only TSA and inoculated as previously described. Two plates containing only 2 mg/L JBC 1847 and bacterial inoculum for each strain served as a positive control. After incubation, clearing zones were measured and compared between control and JBC 1847 plates.

[7] = system: S. aureus ATCC-BAA; experiment: Agar dilution MIC; assay type: cell-based; settings: Staphylococcus aureus, MHA plates
Experimental: as §1

[8] = system: S. aureus USA300 JE2; experiment: Growth and viability assay; assay type: cell-based, Staphylococcus aureus; settings: for Bacterial concentration after 24 h: 0.5 × MIC
Experimental: Growth and viability assays were performed according to a previously published method ([Thorsing et al., 2013]), with some modifications. In general, the assay was conducted over a 24 h period in a 37°C heating bath with shaking, using S. aureus USA300 JE2 as test strain. […] The culture was diluted 1:100 in BHI broth and grown to early exponential phase (OD600 0.20). […] This culture was grown to OD600 0.20 where sample zero was collected. […] 100 μl samples were serially diluted, spread on MHA plates, and incubated at 37°C for 20–24 h followed by successive counting.
Data were statically analyzed and visualized using RStudio v3.6.3 ([R Core Team, 2020]) and Microsoft excel. In general, the values reflecting the bacterial concentration (CFU/ml) were transformed into a logarithmic scale. In the growth and viability assay, the mean numbers of the bacterial concentrations from the triplicates were plotted against time and standard deviations shown as error bars. To investigate differences in bacterial concentration between treatment groups in the in vivo assay, multiple group comparisons were performed using ANOVA and P < 0.05 considered significant. The data was visualized in a standard box plot.

[9] = system: three Gram-negative pathogenic bacteria; experiment: Broth microdilution, summary over Gram-negative isolates; assay type: cell-based
[10] = system: Salmonella typhimurium TA98
[11] = system: S. aureus USA300 JE2; experiment: Broth microdilution with 20% human serum; assay type: cell-based, Staphylococcus aureus
Experimental: In addition, whether serum proteins affected the activity of JBC 1847 against three S. aureus strains (USA300 JE2, ATCC BAA-1556 and CC398 in house strain) was investigated. Broth microdilution assays analog to previously described, with a 20% human serum (Sigma-Aldrich, Brøndby, Denmark) concentration were carried for three S. aureus strains (Table 1). MIC and MBC values were determined as previously described.

[12] = system: MRSA USA300; experiment: Transmission electron microscopy; assay type: cell-based, Staphylococcus aureus; settings: concentration corresponding to the MIC, 1 h, vs untreated control
Experimental: To elucidate the interaction between JBC 1847 and MRSA USA300, transmission electron microscopy (TEM) was carried out. Bacterial cultures were inoculated in 10 ml MHB and cultivated at 37°C for 5 h, with shaking, until mid-exponential growth phase ([…]). […] An untreated control was also prepared. The five samples were placed on ice until being prepared for TEM. This included a fixation step in 2% glutaraldehyde in 0.15 M sodium phosphate buffer (pH 7.2). Subsequently, the fixed cells were washed three times and postfixed with 0.2% OsO4 (osmium tetroxide) in H2O/0.15 M sodium phosphate buffer (pH 7.2) for 1 h. The samples were then dehydrated with graded acetone, and then embedded in epoxy resin. Ultrathin sections of the samples were prepared using Formvar-coated copper grids, which were stained using 3% uranyl acetate. The samples were placed in a Philips CM 100 Transmission EM (Philips, Eindhoven, Netherlands) and exposed to 120 keV electron energy.

[13] = system: eight Gram-positive pathogenic bacteria; experiment: Broth microdilution, summary over Gram-positive isolates; assay type: cell-based
[14] = system: Salmonella typhimurium TA1535
[15] = 20% human serum vs assay without serum
[16] = Staphylococcus aureus, 20% human serum

In the case of `CC(C)=CCCC(C)CC[N+](C)(C)CCCN1c2ccccc2Sc2ccccc21` (centres unmarked) [JBC 1847], the “Mutagenicity ratio (MR)” value ([1]; absence of S9) is reported as “above 2”, the “Mutagenicity ratio (MR)” value ([1]; presence of S9) is reported as “above 2” and the “Mean number of reverse mutated colonies” value ([1]; TA1537, + S9, 1.5 μg/well) is reported as 2.00 ± 2.65. For the same compound, the “Mean number of reverse mutated colonies” value ([1]; TA1537, + S9, 10 μg/well) was 0.33 ± 0.58, the “Mean number of reverse mutated colonies” value ([1]; TA1537, + S9, 64 μg/well) was 0.0 and the “Mean number of reverse mutated colonies” value ([1]; TA1537, −S9, 1.5 μg/well) was 5.00 ± 1.00. For the same compound, the “Mean number of reverse mutated colonies” value ([1]; TA1537, −S9, 64 μg/well) was 0.0, the MBC [2] was 0.5 µg/mL and the MIC [2] was 0.5 µg/mL. For the same compound, the MBC [3] was 0.5 µg/mL, the MIC ([3]; read-out: MIC) was 0.5 µg/mL and the “Mean number of reverse mutated colonies” value ([4]; + S9, 1.5 μg/well) was 51.33 ± 12.86. The “Mean number of reverse mutated colonies” value ([4]; + S9, 4 μg/well) was 40.67 ± 9.07, the “Mean number of reverse mutated colonies” value ([4]; + S9, 10 μg/well) was 40.67 ± 13.32 and the “Mean number of reverse mutated colonies” value ([4]; + S9, 25 μg/well) was 9.67 ± 2.08. For the same compound, the “Mean number of reverse mutated colonies” value ([4]; + S9, 64 μg/well) was 0.0, the “Mean number of reverse mutated colonies” value ([4]; −S9, 1.5 μg/well) was 33.00 ± 2.65 and the “Mean number of reverse mutated colonies” value ([4]; −S9, 4 μg/well) was 39.33 ± 5.69. The “Mean number of reverse mutated colonies” value ([4]; −S9, 10 μg/well) was 17.33 ± 7.09, the “Mean number of reverse mutated colonies” value ([4]; −S9, 64 μg/well) was 0.0 and the MIC ([5]; USA300, 24 h, read-out: MIC Day 1) was 0.5 µg/mL. For the same compound, the MIC ([5]; USA300, 96 h, read-out: Highest MIC) was 3.5 µg/mL, the MIC ([5]; USA300, 96 h, read-out: MIC values after day 4) was 1 to 2.5 µg/mL and the MIC ([5]; USA300, 552 h, read-out: MIC Day 23) was 3.5 µg/mL. For the same compound, the “Increase in MIC” value ([5]; tolerance assay, during the 23 days) was 7 fold, the MIC [6] was 4 µg/mL and the MIC [7] was 4 µg/mL. For the same compound, the “Bacterial concentration after 24 h” value ([8]; trial 1) was “approximately 10^3 CFU/ml”, the “Bacterial concentration after 24 h” value ([8]; trial 2) was 0 CFU/ml and the “Bacterial concentration after 24 h” value ([8]; trial 3, increase after 6 h) was “reached the same level as the control curve”. For the same compound, the “Viable bacterial cells after 30 min” value ([8]; 4 × MIC, all three replicates) was “no viable bacterial cells”, the “Bacterial count after 24 h” value ([8]; MIC concentration, trial 3) was “approximately 10^3 CFU/ml” and the “Bacterial concentration at 24 h” value ([8]; MIC concentration, trials 1 and 2) was 0 CFU/ml. The MIC ([8]; Staphylococcus aureus, USA300, 100 ml BHI broth flasks, culture at OD600 0.20, 37°C shaking 20–22 h, read-out: MIC (visually determined)) was 4 µg/mL, the “MIC values (range over isolates)” value [9] was 8 to 32 µg/mL and the “Mean number of reverse mutated colonies” value ([10]; TA98, + S9, 1.5 μg/well) was 11.00 ± 2.65. The “Mean number of reverse mutated colonies” value ([10]; TA98, + S9, 4 μg/well) was 11.33 ± 3.79, the “Mean number of reverse mutated colonies” value ([10]; TA98, + S9, 10 μg/well) was 13.67 ± 4.04 and the “Mean number of reverse mutated colonies” value ([10]; TA98, + S9, 64 μg/well) was 0.0. The “Mean number of reverse mutated colonies” value ([10]; TA98, −S9, 1.5 μg/well) was 13.00 ± 2.00, the “Mean number of reverse mutated colonies” value ([10]; TA98, −S9, 4 μg/well) was 9.00 ± 2.00 and the “Mean number of reverse mutated colonies” value ([10]; TA98, −S9, 10 μg/well) was 9.67 ± 3.51. For the same compound, the “Mean number of reverse mutated colonies” value ([10]; TA98, −S9, 25 μg/well) was 0.0, the “Mean number of reverse mutated colonies” value ([10]; TA98, −S9, 64 μg/well) was 0.0 and the “Increase in MBC with human serum” value [11, 15] was 128 fold. For the same compound, the “Increase in MIC with human serum” value [11, 15] was 128 fold, the MBC [11, 16] was 64 µg/mL and the MIC [11, 16] was 64 µg/mL. The “TEM appearance of bacterial cells” value [12] was “clearly lysed and the plasma membrane destroyed”, the “MIC values (range over isolates)” value [13] was 0.5 to 2 µg/mL and the “Mean number of reverse mutated colonies” value ([14]; TA1535, + S9, 1.5 μg/well) was 24.33 ± 3.21. For the same compound, the “Mean number of reverse mutated colonies” value ([14]; TA1535, + S9, 4 μg/well) was 26.67 ± 2.08, the “Mean number of reverse mutated colonies” value ([14]; TA1535, + S9, 10 μg/well) was 18.00 ± 5.57 and the “Mean number of reverse mutated colonies” value ([14]; TA1535, + S9, 64 μg/well) was 0.0. For the same compound, the “Mean number of reverse mutated colonies” value ([14]; TA1535, −S9, 1.5 μg/well) was 24.33 ± 3.21, the “Mean number of reverse mutated colonies” value ([14]; TA1535, −S9, 4 μg/well) was 26.67 ± 2.08 and the “Mean number of reverse mutated colonies” value ([14]; TA1535, −S9, 10 μg/well) was 18.00 ± 5.57. For the same compound, the “Mean number of reverse mutated colonies” value ([14]; TA1535, −S9, 25 μg/well) was 0.0 and the “Mean number of reverse mutated colonies” value ([14]; TA1535, −S9, 64 μg/well) was 0.0.
